From US20240181000A1, “LGG-DERIVED PEPTIDES AND METHODS OF USE THEREOF” (Ohio State Innovation Foundation, priority 2021, published 2024)
Where two headings read alike, the source gives them in different places. No end group written: not given here.

Tests used:
Salmonella Javiana = format: cell-based
Experimental: (§1) Peptide protection against varied Salmonella serovars: To further test the spectrum of the peptides anti-Salmonella capabilities, eight additional Salmonella serovars commonly implicated in foodborne illness (S. Anatum, S. Albany, S. Brenderup, S. Javiana, S. Heidelberg, S. Muenchen, S. Newport, S. Saintpaul) were analyzed. P1, P2, and P4 (selected based on dose response assay results) were added to the assay at their MICs to determine their effect on different serovars. Inhibition was determined using criteria from above.

Salmonella Brenderup = assay: MIC against serovars; format: cell-based
Experimental: as §1

Salmonella Saintpaul = assay: MIC against serovars; format: cell-based
Experimental: as §1

APEC [1] = settings: in vivo
Experimental: FIGS. 58A-58B show the APEC load after treatment 8 days dpi with LGG and 50 mg/mL of peptides in drinking water.

APEC [2] = format: in vivo, chickens; settings: in vivo
Source text: FIGS. 57A-57D show the APEC load of chickens (at 7 dpi [days post infection]) treated with either peptides P-1 or P-2.

multiple APEC serotypes = format: cell-based, E. coli
Experimental: Anti-APEC spectrum determination: Peptides (P1, P2, and P3) were tested against multiple APEC serotypes/strains to determine their spectrum of activity. Peptides were added at their MICs and the growth inhibitory activity of the peptides was determined as described above.

APEC O78 = format: cell-based, E. coli
Experimental: Anti-APEC activity determination: The anti-APEC activity of peptides was determined in LB broth following CLSI guidelines. Briefly, overnight grown APEC O78 was adjusted to 5×10^5 CFU/mL concentration in fresh LB media. One-hundred microliters of APEC suspension was aliquoted into the wells of the 96-well plate. Peptides were added to the wells at 6 mM and 12 mM concentrations and incubated at 37° C. in TECAN Sunrise™ absorbance microplate reader with kinetic absorbance measurement set at every 30 mins for 12 h. Sterile media and DMSO (solvent) were used as controls. The growth inhibitory activity of the peptides against APEC was calculated using the formula: (OD600 DMSO treated well−OD600 peptide treated well)/OD600 DMSO treated well×100%.
The minimum inhibitory concentration (MIC) was determined for selected peptides (P1, P2, P3, and P4) using similar assay as above. Peptides were added to the wells of the 96-well plate at 6 mM, 9 mM, 12 mM, 15 mM, and 18 mM concentrations. The peptide concentration at which there is no visible APEC growth (no OD increase) was determined as MIC. Two independent experiments were conducted.
Arginine and lysine substituted peptide analogues: The non-essential amino acid residues identified in each peptide were substituted with arginine/lysine to test whether these substitutions enhance the anti-APEC activity of peptides. The MICs of arginine and lysine substituted peptide analogues ([…] (SEQ ID NO:37), […] (SEQ ID NO:38), […] (SEQ ID NO:39), KDENK (SEQ ID NO:41), PDEKK (SEQ ID NO:42), KDEKK (SEQ ID NO:43), KHTAPK (SEQ ID NO:45), VKTAPK (SEQ ID NO:46), VHTKPK (SEQ ID NO:47), and KKTKPK (SEQ ID NO:48)) were determined as above and compared with original peptides.

NPSRQERR [Peptide P1]
MIC (Salmonella Javiana): 18 mM | MIC (Salmonella Brenderup): 18 mM | MIC (Salmonella Saintpaul): 18 mM | Bodyweight (APEC [1]): no significant effect | Bodyweight (APEC [2]): no significant effect | Growth inhibition against APEC serotypes (multiple APEC serotypes): 95.1-100% | MIC50 (APEC O78): 14.7 mM
